One assay has as its target ALR2 enzyme (Ovis aries, UniProt A0ACI6S8R2). Kind of assay: ALR2 enzyme activity / in vitro inhibition (NADPH absorbance decrease at 340 nm, DL-glyceraldehyde substrate). Format: biochemical. On the procedure: By tracking the shift in absorbance at 340 nm brought on by a decrease in NADPH, ALR2 activity was ascertained. The reaction mixture for ALR2 activity consists of 0.8 M Na‐phosphate buffer (pH = 5.5), NADPH (0.11 mM), DL‐glyceraldehyde (4.7 mM), and enzyme solution [36, 37]. […] Every measurement was taken three times.
The K I values and inhibition types were ascertained using the Lineweaver and Burk curves (Figure 5).

The subject of assay [1] is ALR2. More on the design: method as in ref 79 (Sever et al.). To be noted: ref 79 (Sever et al.); cited from earlier work.
Assay [2] relates to ALR2. Also noted: method as in ref 80 (Racowitz et al.). To be noted: ref 80 (Racowitz et al.); cited from earlier work.

A word on the Ki: it is a dissociation constant, usually derived from enzyme kinetics or from competition with a known ligand. For orientation: IC50 means the concentration needed to halve the response being measured.

Read-outs that look alike come from different tables or passages of the source.

Consider `Fc1ccc(-c2ccon2)cc1` [e, 3‐(4‐fluorophenyl) isoxazole], for which the Inhibition type entry on ALR2 enzyme (Lineweaver-Burk curves) was “Competitive”.
The same measure, in the same setting: under `O=[N+]([O-])c1ccc(-c2ccon2)cc1` [Compound c, 3‐(4‐nitrophenyl) isoxazole] stands “Competitive”.
Regarding Isoxazole, at ALR2 enzyme (Lineweaver-Burk curves), the Inhibition type result is “Noncompetitive”. The Ki on ALR2 enzyme (mean ± standard error of mean, Lineweaver-Burk curves) came out at 89.5 ± 4.68 nM. On ALR2 enzyme (mean ± standard error of mean, from Activity (%) vs compound graphs), this molecule had a 50% inhibitory concentration (IC50) of 43 ± 1.64 nM.
As to `O=c1c(O)c(-c2ccc(O)c(O)c2)oc2cc(O)cc(O)c12` [quercetin], the 50% inhibitory concentration (IC50) with ALR2 [1] was 3230 nM.
Regarding `Brc1ccc(-c2ccon2)cc1` [d, 3‐(4‐bromophenyl) isoxazole], the Inhibition type entry on ALR2 enzyme (Lineweaver-Burk curves) is reported as “Competitive”.
The same measure, in the same setting: under `Clc1ccc(-c2ccon2)cc1` [b, 3‐(4‐chlorophenyl) isoxazole] stands “Competitive”.
For `CC(/C=C1\SC(=S)N(CC(=O)O)C1=O)=C\c1ccccc1` [EPR, Epalrestat, reference compound], the Inhibition type entry on ALR2 enzyme is “Noncompetitive”.
As to `COc1ccc(-c2ccno2)cc1` [h, 5‐(4‐methoxyphenyl) isoxazole], the Inhibition type entry at ALR2 enzyme (Lineweaver-Burk curves) was “Competitive”.
With `Clc1ccc(-c2ccno2)cc1` [g, 5‐(4‐chlorophenyl) isoxazole], the Inhibition type entry on ALR2 enzyme (Lineweaver-Burk curves) is “Competitive”.
`O=C1NC(=O)[C@@]2(CCOc3ccc(F)cc32)N1` [sorbinil]: the half-inhibitory concentration (IC50) in the assay on ALR2 [2] was 3420 ± 20 nM.
Regarding `O=C(O)Cc1nn(Cc2ccc(Br)cc2F)c(=O)c2ccccc12` [ponalrestat], the IC50 in the assay with ALR2 [2] was 80 nM.
Turning to `Fc1ccc(-c2ccno2)cc1` [f, 5‐(4‐fluorophenyl) isoxazole], the Inhibition type entry at ALR2 enzyme (Lineweaver-Burk curves) is given as “Competitive”.

The record behind these values is paper PMC12902737 (Biotechnology and Applied Biochemistry, 2025).
